US4246194A, “Amino-hydroxy-alkyl sulfonic acid-zwitterions” (priority 1979, dated 1981)

How the values were obtained:
[1] = system: NIL B, SV-NIL and BALB/C 3T3 cells; test: effectiveness as cell and tissue culture buffers (overall, cell lines tested); settings: selected media; for effectiveness as culture buffer compared with HEPES: vs HEPES; for effectiveness as culture buffer compared with NaHCO3:CO2 system (control): vs NaHCO3:CO2 control
Protocol: The cell lines used in the tests were NIL B, a hamster fibroblast line; SV-NIL, an SV40-virus transformed line derived from NIL B; and BALB/C 3T3, a mouse embryo tissue. The cells were seeded into T-flasks (screw-capped polystyrene flasks) with a 25 cm^2 area. On the control flask (CO2 atmosphere), the cap was kept loose to allow gas circulation while the caps on the experimental culture flasks were screwed on tightly. The medium used in these tests was Eagle's MEM 4X (see pages 108-112 of Paul, Cell and Tissue Culture, 5th Edition, 1975), in an Earle's salt solution (page 95 of same text) modified to contain 2.2 g/l of bicarbonate for the experimental buffers. The control was not so modified. The control flask was incubated at 37° C. in an atmosphere of 5% CO2 in air whereas the other flasks were incubated at 37° C. in an air atmosphere. The medium was changed every other day.
At appointed times, triplicate flasks were harvested using trypsin, and the approximate cell population was determined using a Coulter electronic particle counter.

[2] = solubility of the zwitterion on acidification; type: physicochemical; settings: acidified to pH 1.5 with HCl, water
[3] = cited from earlier work
[4] = use as buffer in biological research; cited from earlier work

| SMILES | effectiveness as culture buffer compared with HEPES [1] | effectiveness as culture buffer compared with NaHCO3:CO2 system (control) [1] | also measured |
| --- | --- | --- | --- |
| O=S(=O)(O)CC(O)CN1CCN(CCO)CC1 (centres unmarked) [Example 3, N-hydroxyethyl piperazine-N'-2 hydroxypropyl sulfonic acid] | as good as, if not better than | as good as, if not better than |  |
| O=S(=O)(O)CC(O)CN1CCN(CC(O)CS(=O)(=O)O)CC1 (centres unmarked) [Example 4, Piperazine-N,N'-2-hydroxypropyl sulfonic acid (dihydrate)] |  |  | solubility [2]: very insoluble |
| O=S(=O)(O)CC(O)CN1CCOCC1 (centres unmarked) [Example 6, 3-(N-morpholino)-2-hydroxypropyl sulfonic acid] | about as good as | not as good as |  |
| NC(CO)(CO)CO [Tris, tris-(hydroxy-methyl)aminomethane] |  |  | buffering capacity ([3]; below pH 7.5): poor buffering capacity; reactivity ([3]; primary aliphatic amine): considerable reactivity; inhibitory side effect [4]: often inhibitory |
